Measurements taken from the METLIN SMRT retention time set (Domingo-Almenara et al. 2019).

Assay: gradient 5% acetonitrile 3 min, to 50% in 2 min, to 85% in 15 min, held 3 min, 100 µL/min
Conditions: column: Zorbax Extend-C18 2.1 x 50 mm; eluents: water / acetonitrile, 0.1% formic acid
Method in brief: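 Data were gathered over 3 months by HPLC coupled to a quadrupole time-of-flight mass spectrometer, operated in positive and negative ionization mode. Mixtures of ~100 pure standards ran on a Zorbax Extend-C18 column (2.1 × 50 mm, 1.8 μm) at 100 μL/min, with water and acetonitrile each containing 0.1% formic acid and dead and dwell volumes of 40 μL and 900 μL. Retention time was read from adduct peaks picked by computer and checked manually.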

| RP-LC retention time [s] | Structure (SMILES) |
| --- | --- |
| 1310 | Cc1ccc(-c2coc(-c3cccc(NS(=O)(=O)c4ccc(Cl)s4)c3)n2)cc1 |
| 636 | CN1C(=O)CC2(C)C1=CCc1scnc12 (centres undefined) |
| 598 | COc1ccccc1CC(=O)N1CCN(c2ccc(-c3ccccn3)nn2)CC1 |
| 804 | O=C(Nc1ccc(N2CCN(C3CCCC3)C2=O)nc1)c1ccccc1F |
| 739 | CC(C)(C)OC(=O)Nc1ccc(-c2cc(C(=O)NCCCCCCC(=O)NO)no2)cc1 |
| 577 | O=C(CC1CCCC1)N1CCCC(c2nc(-c3ccncc3)n[nH]2)C1 (centres undefined) |
| 855 | Cn1cc(C2=CCN(C(=O)Cc3ccccc3F)CC2)c2cccnc21 |
| 1160 | CC(C)Cc1csc(-c2csc(S(=O)(=O)NCc3ccc(F)cc3F)c2)n1 |
| 792 | O=C(Nc1ccccc1)C1CC(=O)N(c2ccc3c(c2)CCN3C(=O)C2CCC2)C1 (centres undefined) |
| 792 | Cc1ccc(-c2cc3c(=O)n(Cc4noc(CN5CCOCC5)n4)ccn3n2)c(C)c1 |
| 646 | COc1ccc(-c2csc(NC(=O)CCc3c(C)[nH]c(=O)[nH]c3=O)n2)cc1 |
| 1040 | COc1ccc(N2CCN(c3cc(SCC(=O)Nc4ccccc4OC)ncn3)CC2)cc1 |
| 640 | Cc1ccc2nc(-c3cccc(S(=O)(=O)N4CC(C)OC(C)C4)c3)cn2c1 (centres undefined) |
| 1010 | C(=C\c1cccs1)/c1nc(-c2cccc(-c3ccn[nH]3)c2)no1 |
| 662 | Cc1ccccc1CNC(=O)Cn1c(=O)c2nncn2c2ncccc21 |
| 895 | Cc1ccc(NC(=O)N2C[C@@H](F)C[C@H]2C(=O)N2CCc3ccccc3C2)cc1Cl |
| 676 | COc1cccc(S(=O)(=O)N2C[C@@H](F)C[C@H]2C(=O)N2CCOCC2)c1 |
| 715 | COC(=O)c1ccc(NC(=O)C2CCN(c3cc(N4CCCCC4)ncn3)CC2)cc1 |
| 808 | COc1cc(Nc2nc(C(=O)N3CCCCC3)cc3occc23)cc(OC)c1OC |
| 833 | CCCNC(=O)N(C)CCc1noc(COc2ccc(Cl)cc2)n1 |
| 680 | Cc1ccc(NC(=O)N2CCCC(Cn3cnc4cccnc43)C2)c(C)c1 (centres undefined) |
| 714 | COc1ccc(C(=O)N2CCC(n3c(-c4ccoc4)nc4cccnc43)C2)cc1F (centres undefined) |
| 699 | O=C(CCCc1nnc2c(=O)n(-c3ccc(F)cc3)ccn12)NCCc1c[nH]c2ccccc12 |

| RP-LC retention time [s] | Structure (SMILES) |
| --- | --- |
| 844 | CCOc1ccc(NC(=O)N2CCC(n3cnc4ccc(Cl)cc4c3=O)CC2)cc1 |
| 582 | CCN1CCC(CCNC(=O)C2CCc3sc(C(=O)N4CCCC4)cc3C2)CC1 (centres undefined) |
| 868 | CCN(C(=O)C1CCCN1S(=O)(=O)c1cc2c(cc1C)NC(=O)C(C)O2)c1cccc(C)c1 (centres undefined) |
| 1140 | O=C(Nc1cnc(-c2cccc(Cl)c2)nc1)c1ccc(Br)o1 |
| 1120 | CCOc1ccccc1CN1CCc2nc(N3CCN(CC)CC3)ncc2C1 |
| 850 | CCCOc1ccc(CNC(=O)C2CCc3nc(N4CCCCC4)ncc3C2)cc1 (centres undefined) |
| 646 | CN1C(=O)CSc2cnn(CC(=O)NC3CCCCC3)c(=O)c21 |
| 611 | CCOc1ccc(S(=O)(=O)N2CCC3(CCC(CN4CCN(C)CC4)O3)CC2)cc1 (centres undefined) |
| 730 | CC(C)NC(=O)N(C)Cc1ccsc1 |
| 770 | COc1ccc(-c2csc(NC(=O)Nc3c(F)cccc3F)n2)cc1OC |
| 552 | c1ccc(O[C@H]2CN(C3CCNCC3)[C@H]2c2ccncc2)cc1 |
| 706 | COc1cc(NC(=O)CC2=C3CCCCC3NC2=O)cc(OC)c1 (centres undefined) |
| 1090 | O=c1ccc(-c2ccc(F)cc2)nn1Cc1nc(-c2cccc(Cl)c2)no1 |
| 664 | O=C(c1ccc(N2CCCC2)c(S(=O)(=O)N2CCCC2)c1)N1CCN(c2ccccn2)CC1 |
| 1070 | CCc1cccc(C)c1NC(=O)Cn1cnc2c(sc3nc(-c4ccccc4)ccc32)c1=O |
| 807 | O=C(COc1ccccc1Cl)NCCCn1nc(-c2ccc(F)cc2)ccc1=O |
| 1070 | CCOC(=O)COC(=O)c1cn(-c2ccc(OCC)cc2)c(=O)c2ccccc12 |
| 649 | CC(C)C[C@H](NC(=O)Cn1cnc2ccccc2c1=O)C(=O)O |
| 687 | OC(CNCc1ccc(-c2ccc(F)cc2)o1)c1ccccc1 (centres undefined) |
| 660 | CC(C)n1c(=O)sc2cc(S(=O)(=O)N3CCC(C(=O)NCc4ccccn4)CC3)ccc21 |
| 1070 | Cc1cc2c(cc1C)N(CC(=O)Nc1ccc(F)cc1F)C(=O)CC(c1cccs1)=N2 |
| 709 | CCCNC(=O)C1CCCN(c2nc3ncn(CC(=O)NC4CCc5ccccc54)c(=O)c3s2)C1 (centres undefined) |
| 747 | COc1ccc(NC(=O)C2CCc3nc(N4CCC(C)CC4)ncc3C2)c(C)c1 (centres undefined) |

| RP-LC retention time [s] | Structure (SMILES) |
| --- | --- |
| 660 | CC(C)C(=O)NCC12CCCC=C1N(C)C(=O)CC2 (centres undefined) |
| 744 | CCSc1nnc(-c2nn(C)c3c2CN(C(=O)c2cccc(F)c2)CC3)n1C |
| 767 | C[C@@H]1CCN(C(=O)C(CCCN=C(N)N)NS(=O)(=O)c2cccc3c2NC[C@H](C)C3)C(C(=O)O)C1 (some centres undefined) |
| 762 | O=C(c1ccsc1)N1CCC(OCc2nc(C3CC3)no2)CC1 |
| 820 | O=C(Cc1nnc2cc(-c3nc(C4CC4)no3)ccn12)NCC1CC1 |
| 719 | Cc1nc(-c2ccccc2)cc2nn(CC(=O)Nc3ccc4c(c3)OCO4)c(=O)n12 |
| 1360 | CCOC(=O)c1c(C)oc2nc(C)nc(Nc3ccc(C)c(F)c3)c12 |
| 582 | CCCN1CCN(C(=O)C2CCCN(c3nnc(C)c4c(C)n(-c5ccccc5)nc34)C2)CC1 (centres undefined) |
| 778 | Cc1cc(Cl)ccc1NC(=O)Cn1nc(C(=O)N2CCCCC2)c2ccccc21 |
| 624 | Cc1cc(C(=O)Nc2ccc3c(c2)C(=O)N(C)CCO3)no1 |
| 741 | Cc1ccc(NC(=O)C2CC(=O)N(c3ccc4oc(C)nc4c3)C2)c(C)c1 (centres undefined) |
| 726 | CCOc1ccc(N2CC(c3nnc(NC(=O)CCc4ccccc4)o3)CC2=O)cc1 (centres undefined) |
| 793 | CCC1=C(c2ccc(C)cc2)S(=O)(=O)N=C1N1CCC(C(=O)NCc2ccco2)CC1 |
| 756 | COc1ccc(NC(=O)C2CCc3sc(C(=O)N4CCCC4)cc3C2)c(OC)c1 (centres undefined) |
| 926 | CN1C(=O)COc2ccc(-c3csc(NC(=O)c4ccccc4)n3)cc21 |
| 718 | COc1cc(NC(=O)C2Nc3cc(F)ccc3S(=O)(=O)N2)cc(OC)c1OC (centres undefined) |
| 951 | Cc1ccc(Nc2c(-c3ccccc3O)nc3ncccn23)cc1C |
| 1040 | Clc1ccc(Nc2c(-c3ccc(Cl)cc3)nc3cnccn23)cc1 |
| 695 | Cc1noc2nc(CCC(=O)NCCCN3CCc4ccccc4C3)nc(N3CCCCCC3)c12 |
| 865 | Cc1cccc(C)c1Nc1c(-c2ccccc2)nc2cnccn12 |
| 713 | COCCn1ncc(N2CCC(C(=O)N3CCc4ccccc43)C2)cc1=O (centres undefined) |
| 789 | CN1C(=O)c2cc(C(=O)NCc3ccccc3Cl)nn2CC1(C)C(=O)NCc1ccccc1 (centres undefined) |
| 1020 | CSc1cccc(NC(=O)Cn2cc(-c3ccccc3)c3ncn(C4CC4)c(=O)c32)c1 |

| RP-LC retention time [s] | Structure (SMILES) |
| --- | --- |
| 874 | COc1ccc(N2CC(c3noc(-c4ccc5c(c4)OCO5)n3)CC2=O)cc1 (centres undefined) |
| 780 | Cc1cc(C(=O)Nc2nc3c(F)cccc3s2)no1 |
| 577 | COc1ccc2[nH]c(=O)c(CCC(=O)NCc3nc4ccccc4n3C)cc2c1 |
| 678 | COc1ccc(NC(=O)Cn2nc3n(c2=O)CCCCC3)c(OC)c1 |
| 892 | COc1ccccc1Cc1noc(C2CN(C(=O)c3ccc(Cl)s3)C2)n1 |
| 620 | O=C(c1ccccn1)N1CCCn2cc(-c3ccccc3)nc21 |
| 1010 | O=C(Cn1nc(N2CCSCC2)c2ccccc2c1=O)Nc1cccc(Cl)c1 |
| 623 | CC(=O)Nc1cc(C(=O)NCc2ccccc2Br)c2ccc(C)nc2c1 |
| 730 | CCCN(C)c1nccn2c(=O)n(CC(=O)Nc3cccc(Br)c3)nc12 |
| 945 | CC1CCN(C(=O)C2=CN(c3cc(F)cc(F)c3)c3ccccc3S2(=O)=O)CC1 |
| 722 | COCc1nnc(-c2ccc3c(c2)OCO3)o1 |
| 746 | CN(C(=O)C(=O)Nc1ccc2nc3n(c(=O)c2c1)CCCCC3)c1ccccc1F |
| 970 | CN(C)c1cccc(C(=O)Nc2cc(-c3cccs3)no2)c1 |
| 818 | CC(C(=O)N1CCCc2ccccc21)n1cnc2nc3c(cc2c1=O)CCCC3 (centres undefined) |
| 752 | O=C(Cc1ccc(Cl)cc1)Nc1cnc(N2CCCC2)nc1 |
| 807 | Cc1noc(N)c1-c1ccc(Cl)cc1 |
| 928 | Cc1ccc(S(=O)(=O)N2CC3CN(C(=O)COc4cccc(C)c4)CC(C2)O3)cc1 |
| 848 | O=C(Cn1nc(-c2nc(-c3ccc(Cl)cc3)no2)ccc1=O)N1CCCC1 |
| 750 | Cc1ccc(Nc2c(-c3nc(C)no3)cnc3nc(C)ccc23)cc1 |
| 913 | Cc1ccc(NC(=O)C2CCN(S(=O)(=O)c3ccc4c(c3)sc(=O)n4C)CC2)cc1C |
